Row | Compound | melting point [°C]
1 | S=C(Nc1ccccc1)N1CC(c2ccccc2)CC1c1ccccc1 (centres undefined) | 188
2 | O=C1C(CCl)(CCl)CCC1(CCl)CCl | 72
3 | CC(=O)Nc1ccc(C=Cc2ccccc2)c([N+](=O)[O-])c1 | 192
4 | CC1=NCCNc2c1c(=O)n(-c1ccccc1)c1ccccc21 | 221
5 | COC(=O)c1ccccc1SC | 65
6 | COc1c2ccoc2cc2oc(COC3OC(CO)C(O)C(O)C3O)cc(=O)c12 (centres undefined) | 179
7 | C1CCC2OCCOCCOC3CCCCC3OCCOCCOC2C1 (centres undefined) | 66 to 70
8 | COC(=O)C=CC(C)=CC=CC(C)=CC=CC=C(C)C=CC=C(C)C=CC(=O)O | 198
9 | COc1cccc(O)c1C(C)=O | 58 to 60
10 | CN1N=C(C(F)(F)F)CC1=O | 179
11 | O=C(c1ccc(C(=O)C(Cl)(Cl)Cl)cc1)C(Cl)(Cl)Cl | 121
12 | O=Cc1ccc(-c2ccc(-c3cccs3)s2)s1 | 133 to 135
13 | COc1nc(NC(C)C)nc(NC(C)C)n1 | 91.5
14 | COc1cc(CC2C(=O)NC(=N)N2C)ccc1O (centres undefined) | 231 to 233
15 | Cc1ccc(C(C=O)C=O)cc1 | 128 to 134
16 | Cc1nc(/C(C#N)=N/Nc2ccccc2Cl)sc1/N=N/c1ccc(Br)cc1 | 241
17 | CC(C)(C)OC(=O)N1Cc2ccccc2C[C@H]1C(=O)O | 125 to 126
18 | CC1=CCC(=O)O1 | 18
19 | CSc1nc(=O)n(C2CCCCC2)c2c1CCC2 | 192 to 194
20 | NC(Cc1cc(F)ccc1F)C(=O)O (racemic) | 252 to 253
21 | O=[N+]([O-])C(CO)(CO)CO | 214
22 | Cn1c(/C(C#N)=C/c2c(Cl)cccc2Cl)nc2ccccc21 | 185
23 | C#CCC1(OC(N)=O)CCCCC1 | 99
24 | C=CSC=C | 20
25 | N#Cc1ccc([N+](=O)[O-])cc1C(F)(F)F | 52 to 54
26 | CC(CO)c1c(O)c(O)c2c(c1O)C(=O)C(=O)C1C2(C)CCC(O)C1(C)C (centres undefined) | 214 to 216

Row | Compound | melting point [°C]
27 | CCCCC(O)C(O)CO (centres undefined) | 92 to 97
28 | CC(CO)NC(=O)OC(C)(C)C (centres undefined) | 60
29 | Cc1c(C(=O)Cl)oc2ccccc12 | 70 to 74
30 | O=Cc1cccc(N2CCOCC2)c1 | 68 to 70
31 | COc1cc2c(cc1OC)C(c1ccc([N+](=O)[O-])cc1)N(C(C)=O)CC2 (centres undefined) | 183 to 185
32 | O=c1oc2ccccc2c(O)c1C1CC(c2ccc(-c3ccc(Br)cc3)cc2)Cc2ccccc21 (centres undefined) | 230
33 | CCCN | -83
34 | O=C1NCCN1CCO | 49
35 | CC(=O)Oc1nc(C2CCCCC2)nn1-c1ccccc1 | 108
36 | Oc1ccc(-c2nnc3n2NC(c2ccco2)S3)cc1 (centres undefined) | 230
37 | CC12CCC(O)CC1CCC1C2CCC2(C)C1CCC21OCCO1 (centres undefined) | 151
38 | C1CC2CCCC(C1)C2 | 146
39 | CSc1nc(=O)n(CCO)c2c1CCC2 | 193 to 195
40 | CC(=O)OC1CCCc2c(C)ccc(C)c21 (centres undefined) | 52
41 | O=C(Nc1ccccn1)c1ccccc1Cl | 137 to 139
42 | C1CCC2NCCCC2C1 (centres undefined) | 37.5 to 45
43 | CC(=O)O[Si](OC(C)=O)(OC(C)=O)OC(C)=O | 110
44 | N#CCCCCCC#N | -31.4
45 | CC1NC(C(=O)O)CS1 (mixture of isomers) | 180 to 185
46 | COc1c(OC)c(=O)c1=O | 55 to 57
47 | CSC(C)(C)C=NO | 21
48 | CC(C(O)c1ccccc1)N(C)CC=Cc1ccccc1 (centres undefined) | 75
49 | BrCc1c(CBr)c(CBr)c2ccccc2c1CBr | 197
50 | O=C(/C=C/C(=O)c1ccccc1)c1ccccc1 | 110 to 111
51 | O=C(O)CONC(=O)c1ccccc1 | 140
52 | N#C/C(=N\Nc1cc(Cl)c(Cl)cc1Cl)c1nc2ccccc2s1 | 214

Row | Compound | melting point [°C]
53 | COc1cccc(C=Cc2cc(C=Cc3cccc(OC)c3O)c([N+](=O)[O-])cc2[N+](=O)[O-])c1O | 254
54 | COc1cc2cc[nH]c2cc1OC | 157
55 | ClC(Cl)(Br)C(Cl)(Cl)Br | 220 to 222
56 | Cc1cc2c(c(C)c1C)CC2 | 38
57 | CNC(=O)COC(=O)c1ccccc1 | 112
58 | Cn1c(=O)c(C2=NNC(=O)C2=Cc2c[nH]c3ccccc23)c(O)c2ccccc21 | 297
59 | COC(=O)CCC(C)C1CCC2C3C(O)C(O)C4CC(O)CCC4(C)C3CC(O)C12C (centres undefined) | 162
60 | COc1ccccc1-c1nnc2n1NC(c1ccc(Cl)cc1)S2 (centres undefined) | 203
61 | O=Cc1ccc(-c2cncnc2)cc1 | 147 to 148
62 | O=C1C=CC2=CC(=O)C=CC(=C1)C2 | 122
63 | Cc1ccc(C(=O)NS(=O)(=O)c2ccc(N)cc2)cc1C | 222
64 | NC(=O)OCC(O)c1ccccc1 (centres undefined) | 112
65 | CCOC(=O)c1c(-c2cccs2)csc1N | 85 to 87
66 | N#C/C(=N\Nc1c(Cl)cc(Cl)cc1Cl)c1nc2ccccc2[nH]1 | 263
67 | Brc1ccc2[nH]ccc2c1 | 91
68 | O=C(CBr)c1ccc2ccccc2c1 | 82 to 85
69 | CC(=O)c1ccc(S(C)(=O)=O)cc1 | 129 to 131
70 | O=C(Nc1ccc(Cl)cc1)C(Cl)=C(Cl)Cl | 146
71 | Cc1[nH]c2cc(C(=O)O)ccc2c1C | 150
72 | Cc1ccc2nc3c(ccc4ccccc43)c(C)c2c1 | 159
73 | CC(C)(C)OC(=O)NCc1ccc(C=O)cc1 | 83 to 84
74 | Cn1nc(-c2ccco2)cc1C(=O)O | 130
75 | CCOP(=S)(OCC)Oc1ccc2c(C)c(Cl)c(=O)oc2c1 | 95
76 | CC1(C)CC(C)(c2ccc(O)cc2)c2ccccc2O1 (centres undefined) | 140
77 | Cc1cnc(N)c([N+](=O)[O-])c1 | 190 to 195
78 | CC(C)C(C)(C)C | -25

Row | Compound | melting point [°C]
79 | COc1cc(C(=O)O)c([N+](=O)[O-])cc1OC | 195 to 197
80 | CC12CCC(/C(=C3/OC(C4C(=O)C5(C)CCC4C5(C)C)C3=O)C1=O)C2(C)C (centres undefined) | 196
81 | O=C(O)C1=CC(=C(c2ccc(O)c(C(=O)O)c2)c2ccc(O)c(C(=O)O)c2)C=CC1=O | 300
82 | O=C1OC(c2ccccc2)=N/C1=C/c1ccc(-c2ccc(Br)cc2)o1 | 180
83 | Cc1cccc(Cl)c1C=O | 37
84 | O=C(O)C1C2CCC(O2)C1C(=O)O (centres undefined) | 144
85 | CC(=NO)C(C)(C)O | 85
86 | Cc1ccc(Cl)c(N)c1Cl | 37 to 40
87 | OCc1cc(O)ccc1O | 100
88 | CC1(C)C(Br)=C(Br)C(=O)C1Br (centres undefined) | 87
89 | CCOC(=O)C(Cl)Cc1cc(-n2nc(C)n(C(F)F)c2=O)c(F)cc1Cl (centres undefined) | -22.1
90 | CCOC(=O)C(C(C)=O)C(C)C(C(C)=O)C(=O)OC1CC(C)CCC1C(C)C (centres undefined) | 155
91 | O=P(N1CC1)(N1CC1)N(N=Cc1ccccc1)c1ccccc1 | 114
92 | NNC(=O)C(F)(F)F | 111 to 115
93 | O=C(Cl)c1cccc2c1OCCCO2 | 36 to 38
94 | CC(C)(C)OC(=O)NC(CO)C(=O)O (centres undefined) | 90.5
95 | C1=CCNCC1 | -48
96 | CC(Oc1ccc(Oc2ccc(Cl)cc2Cl)cc1)C(=O)O (centres undefined) | 120
97 | Cc1ccccc1NC(N)=S | 162
98 | NC(=O)c1ccc(CC(=O)c2ccc(Cl)cc2)cc1 | 221 to 223
99 | CCCCCCC(=O)OC | -56
100 | O=C1c2ccccc2C(=O)C1(Br)c1ccccc1 | 106 to 107
101 | C=C(C)C=O | -81
102 | NC(=O)/C(=C\c1ccc(F)cc1)c1nc2ccccc2s1 | 178
103 | O=C1c2cccc(O)c2C(=O)c2c(O)cccc21 | 193
104 | COc1ccc(-c2ccc(S(=O)(=O)NC(C(=O)O)C(C)C)cc2)cc1 (centres undefined) | 178

Row | Compound | melting point [°C]
105 | O=[N+]([O-])c1cc(O)c(Cl)cc1Cl | 100
106 | N#Cc1c(Cl)cccc1[N+](=O)[O-] | 121
107 | O=[N+]([O-])c1ccccc1/C=C/c1ccccn1 | 214
108 | CCNc1nc(NC(C)C(C)C)nc(SC)n1 (centres undefined) | 65
109 | O=C(NC(Cc1ccccc1)C(=O)O)OCc1ccccc1[N+](=O)[O-] (centres undefined) | 140 to 142
110 | COC(=O)c1nccnc1N | 171
111 | CC(C)(Oc1ccc(C(C)(C)C)cc1)C(=O)O | 97 to 98
112 | Cc1c([N+](=O)[O-])cc(C(C)C)c(O)c1[N+](=O)[O-] | 55.5
113 | O=Cc1cccc2ccccc12 | 33.5
114 | O=C(C1=NOC2C(=O)N(c3ccc(Br)cc3)C(=O)C12)c1ccc2ccccc2c1 (centres undefined) | 186
115 | NCC(O)CN | 43
116 | O/N=C(\Cc1ccccc1)c1ccc2ccccc2c1 | 128 to 130
117 | CCNC(=O)NC(=O)C(C#N)=NOC | 161
118 | Nc1ncccc1[N+](=O)[O-] | 166
119 | c1ccc(Oc2nc(Oc3ccccc3)nc(Oc3ccccc3)n2)cc1 | 234
120 | O=C(c1ccccc1O)c1ccccc1O | 59.5
121 | Brc1ccc(Br)nc1 | 94
122 | OC(c1ccc(Cl)cc1)(c1ccc(Cl)cc1)c1ccc(Cl)cc1 | 95.5
123 | CC1CCC2(NC1)OC1CC3C4CCC5CC(O)CCC5(C)C4CCC3(C)C1C2C (centres undefined) | 210
124 | Cc1ccc(N)cc1[N+](=O)[O-] | 76.5
125 | COc1ccc(OC)c(Cl)c1 | 8.1
126 | CC(C)(C)c1cc(Br)cc(C(C)(C)C)c1O | 83
127 | CC1OC(OC2C=C3CCC4C(CCC5(C)C(c6ccc(=O)oc6)CCC45O)C3(C)CC2)C(O)C(O)C1O (centres undefined) | 221
128 | CCOC(=O)c1cc(-c2ccc(C)cc2)oc1C | 82 to 83
129 | O=c1ccc([N+](=O)[O-])cn1Cc1ccccc1 | 96
